Patent US7498404B2, “Compositions, methods and uses for a novel family of peptides” (priority 2004, dated 2009)

What was measured:
[1] = tested on: straight run broilers; experiment: Growth promoting Studies 3-1 and 3-2, pelleted starter feed, batteries; format: in vivo, chicken; details: BT1583 12 ppm, BMD 50 ppm, COB 90 ppm, alone or combined
From the text: Eight (8) study repetitions per treatment were used, again with 4 birds per pen.

[2] = target: Module 5 A-domain protein (Brevibacillus texasporus, UniProt Q2VQ15); experiment: ATP-PPi exchange assay, Module 5 A-domain; format: biochemical; details: 0.5 mM amino acid, 0.2 μM protein, 37° C., 15 min
Sequence of Module 5 A-domain protein (Q2VQ15 entry or part of it): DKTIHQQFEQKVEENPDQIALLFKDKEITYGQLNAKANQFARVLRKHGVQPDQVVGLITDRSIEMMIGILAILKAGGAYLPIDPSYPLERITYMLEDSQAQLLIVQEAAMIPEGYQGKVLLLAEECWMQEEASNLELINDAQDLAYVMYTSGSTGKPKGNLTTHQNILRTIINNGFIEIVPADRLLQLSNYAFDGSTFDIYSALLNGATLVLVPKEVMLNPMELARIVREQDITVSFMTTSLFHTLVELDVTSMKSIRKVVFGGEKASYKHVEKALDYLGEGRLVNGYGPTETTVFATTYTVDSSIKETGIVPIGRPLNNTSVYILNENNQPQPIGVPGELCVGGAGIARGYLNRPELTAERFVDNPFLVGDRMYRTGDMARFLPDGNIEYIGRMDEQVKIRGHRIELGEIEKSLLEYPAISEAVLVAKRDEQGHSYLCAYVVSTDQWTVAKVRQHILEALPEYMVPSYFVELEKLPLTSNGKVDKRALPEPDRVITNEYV
Experimental: (§1) Cloning, overexpression, and purification of His10-tagged BT A-domain proteins. DNA fragments encoding the A-domains of the BT NRPS Modules 8, 5, 7, 4 and 2 (Bt8A, Bt5A, Bt7A, Bt4A and Bt2A) were PCR-amplified and the PCR products were inserted into the His10-tag recombinant protein expression vector pET16b (Novagen). The A-domain borders were determined as defined by (Konz, et al., 1999). The expression constructs were transformed into the E.coli BL21 -AI strain (Invitrogen). Transformants were grown in L-broth at 37° C. to an A600 of 0.6 and then induced with 1 mM IPTG (isopropyl-β-D-thiogalactopyranoside) plus 0.2% L-arabinose. The cells were allowed to grow for two additional hours at 30° C. before being harvested. Purification of the His10-tag recombinant proteins was achieved using the TALON metal affinity resins (BD Biosciences) under conditions recommended in the manual with modifications. Briefly, the E. coli cells were broken by sonication. Cell lysates were cleared by centrifugation at 25,000× g for one hour. […] Eluted proteins were dialyzed against a buffer (50 mM HEPES, pH 8.0, 100 mM sodium chloride, 10 mM magnesium chloride, and 1 mM EDTA) and then analyzed with SDS PAGE plus Coomassie Blue staining. […] Concentrations of the purified proteins were determined by using the calculated molar extinction coefficient for the A280.
(§2) ATP-PPi exchange assay. […] The charcoal/water suspension was added to a scintillation vial containing 5.0 ml of scintillation fluid, and the bound radioactivity was determined by liquid scintillation counting. […]
(§3) Since a purified recombinant A-domain of an NRPS module can selectively and efficiently activate the cognate amino acid substrate of the NRPS module in an ATP-PPi exchange assay (Konz, et al., 1999; Mootz & Marahiel, 1997), ATP-PPi exchange assays have been used to experimentally establish NRPS module specificities and novel NRPS codons. […] A-domain specificities were determined in ATP-PPi exchange and aa Km assays (see Methods and Materials), and the results are shown in FIG. 5. […]

[3] = target: Module 8 A-domain protein (Brevibacillus texasporus, UniProt Q2VQ14); experiment: ATP-PPi exchange assay, Module 8 A-domain; format: biochemical; details: 0.5 mM amino acid, 2 μM protein, 37° C., 15 min
Sequence of Module 8 A-domain protein (Q2VQ14 entry or part of it): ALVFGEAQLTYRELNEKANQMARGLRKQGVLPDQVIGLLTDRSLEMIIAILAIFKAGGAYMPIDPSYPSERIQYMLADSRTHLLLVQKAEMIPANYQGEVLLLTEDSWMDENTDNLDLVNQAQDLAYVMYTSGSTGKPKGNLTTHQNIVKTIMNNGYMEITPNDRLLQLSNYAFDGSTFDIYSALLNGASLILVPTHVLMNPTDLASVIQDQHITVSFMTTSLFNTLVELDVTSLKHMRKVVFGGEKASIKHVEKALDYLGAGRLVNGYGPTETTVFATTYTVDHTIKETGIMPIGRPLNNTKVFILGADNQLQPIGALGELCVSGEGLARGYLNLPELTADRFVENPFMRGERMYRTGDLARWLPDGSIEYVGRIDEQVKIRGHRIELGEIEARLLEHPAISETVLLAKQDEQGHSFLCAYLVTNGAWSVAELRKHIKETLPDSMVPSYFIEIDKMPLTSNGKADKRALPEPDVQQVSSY
Experimental: as §1, §2, §3

[4] = target: Module 4 A-domain protein (Brevibacillus texasporus, UniProt Q2VQ15); experiment: ATP-PPi exchange assay, Module 4 A-domain; format: biochemical; details: 0.5 mM amino acid, 0.2 μM protein, 37° C., 15 min
Sequence of Module 4 A-domain protein (Q2VQ15 entry or part of it): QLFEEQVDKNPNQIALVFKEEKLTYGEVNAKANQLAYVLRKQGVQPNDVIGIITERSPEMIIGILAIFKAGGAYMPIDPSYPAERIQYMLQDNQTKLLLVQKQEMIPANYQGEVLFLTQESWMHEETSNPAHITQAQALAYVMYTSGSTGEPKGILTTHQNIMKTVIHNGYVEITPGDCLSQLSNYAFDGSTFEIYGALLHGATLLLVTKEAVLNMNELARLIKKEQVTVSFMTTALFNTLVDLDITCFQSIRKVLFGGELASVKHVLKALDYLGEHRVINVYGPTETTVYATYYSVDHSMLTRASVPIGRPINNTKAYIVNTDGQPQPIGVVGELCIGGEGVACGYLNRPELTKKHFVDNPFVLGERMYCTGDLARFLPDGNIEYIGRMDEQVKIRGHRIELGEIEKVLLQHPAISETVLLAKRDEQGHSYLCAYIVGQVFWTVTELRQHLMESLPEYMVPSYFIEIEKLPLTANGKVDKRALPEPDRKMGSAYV
Experimental: as §1, §2, §3

[5] = tested on: Module 2 A-domain protein; experiment: ATP-PPi exchange assay, Module 2 A-domain; format: biochemical, Brevibacillus texasporus; details: 0.5 mM amino acid, 37° C., 15 min
Experimental: Cloning, overexpression, and purification of His10-tagged BT A-domain proteins. DNA fragments encoding the A-domains of the BT NRPS Modules 8, 5, 7, 4 and 2 (Bt8A, Bt5A, Bt7A, Bt4A and Bt2A) were PCR-amplified and the PCR products were inserted into the His10-tag recombinant protein expression vector pET16b (Novagen). The A-domain borders were determined as defined by (Konz, et al., 1999). The expression constructs were transformed into the E.coli BL21 -AI strain (Invitrogen). Transformants were grown in L-broth at 37° C. to an A600 of 0.6 and then induced with 1 mM IPTG (isopropyl-β-D-thiogalactopyranoside) plus 0.2% L-arabinose. The cells were allowed to grow for two additional hours at 30° C. before being harvested. Purification of the His10-tag recombinant proteins was achieved using the TALON metal affinity resins (BD Biosciences) under conditions recommended in the manual with modifications. Briefly, the E. coli cells were broken by sonication. Cell lysates were cleared by centrifugation at 25,000× g for one hour. His-tagged recombinant proteins were then incubated with the TALON resin, washed, and eluted with 500 mM imidazole. Eluted proteins were dialyzed against a buffer (50 mM HEPES, pH 8.0, 100 mM sodium chloride, 10 mM magnesium chloride, and 1 mM EDTA) and then analyzed with SDS PAGE plus Coomassie Blue staining. […] Concentrations of the purified proteins were determined by using the calculated molar extinction coefficient for the A280.
ATP-PPi exchange assay. ATP-PPi exchange assays were performed to determine the substrate specificity of an A-domain. ATP-PPi exchanges were assayed as previously described (Stachelhaus, et al., 1998) with minor modifications. The assay mixture contained 50 mM HEPES (pH 8.0), 100 mM NaCl, 10 mM MgCl2, 2 mM ATP, 0.5 mM amino acid, 0.05 mM PPi, 0.15 μCi tetrasodium [^32P]pyrophosphate. Exchange was initiated by addition of purified recombinant A-domain proteins to a total volume of 0.1 ml. The protein concentrations were 0.2 μM for Module 4 and Module 5 A-domains while 2 μM for Module 7 and Module 8 A-domains. After incubation at 37° C. for 15 min, the reaction was stopped by addition of 0.5 ml of Termination Mix (100 mM tetrasodium pyrophosphate, 3.5% HClO4, and 1.6% [w/v] activated charcoal). The charcoal was pelleted by centrifugation, washed first with 40 mM pyrophosphate plus 1.4% perchloric acid and then with water, and was re-suspended in 0.5 ml of water. The charcoal/water suspension was added to a scintillation vial containing 5.0 ml of scintillation fluid, and the bound radioactivity was determined by liquid scintillation counting. The apparent Km values were determined with substrate concentrations ranging from 0.1 to 10 mM.
Since a purified recombinant A-domain of an NRPS module can selectively and efficiently activate the cognate amino acid substrate of the NRPS module in an ATP-PPi exchange assay (Konz, et al., 1999; Mootz & Marahiel, 1997), ATP-PPi exchange assays have been used to experimentally establish NRPS module specificities and novel NRPS codons. Recombinant A-domains of Modules 8, 5, 7 ,4 and 2 of the BT NRPS were produced and purified as described in Methods and Materials. Almost completely soluble recombinant A-domain proteins were obtained. A-domain specificities were determined in ATP-PPi exchange and aa Km assays (see Methods and Materials), and the results are shown in FIG. 5. […]

[6] = target: T1, Module 7 A-domain protein (Brevibacillus texasporus, UniProt Q2VQ15); experiment: ATP-PPi exchange assay, Module 7 A-domain; format: biochemical
T1 sequence (Q2VQ15 3560-4063): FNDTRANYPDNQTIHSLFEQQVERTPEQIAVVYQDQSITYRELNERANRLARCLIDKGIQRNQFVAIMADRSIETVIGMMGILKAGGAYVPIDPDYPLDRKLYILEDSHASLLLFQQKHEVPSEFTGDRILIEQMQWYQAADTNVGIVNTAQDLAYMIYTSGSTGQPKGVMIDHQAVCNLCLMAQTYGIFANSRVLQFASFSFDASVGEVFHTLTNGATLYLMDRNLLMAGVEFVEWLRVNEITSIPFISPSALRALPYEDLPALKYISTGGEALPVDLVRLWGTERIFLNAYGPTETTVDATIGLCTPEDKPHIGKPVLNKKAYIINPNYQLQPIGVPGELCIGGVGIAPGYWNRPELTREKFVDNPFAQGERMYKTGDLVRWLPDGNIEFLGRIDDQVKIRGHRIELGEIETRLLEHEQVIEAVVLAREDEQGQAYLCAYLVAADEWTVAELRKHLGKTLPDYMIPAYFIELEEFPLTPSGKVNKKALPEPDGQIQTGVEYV
Experimental: as §1, with “harvested.” for “harvested. Purification of the His10-tag recombinant proteins was achieved using the TALON metal affinity resins (BD Biosciences) under conditions recommended in the manual with modifications. Briefly, the E. coli cells were broken by sonication. Cell lysates were cleared by centrifugation at 25,000× g for one hour.”
as §2

With Bacitracin MD [BMD, reference compound] the “20-day cumulative weight gain, Mean” value ([1]; Table 18) was 832.9688, the “21-day cumulative weight gain, estimated marginal Mean” value ([1]; Table 20) was 832.969 and the “21-day cumulative weight gain, Duncan homogeneous subsets” value ([1]; Table 21) was 832.9688. For the same molecule, the “20-day cumulative feed conversion rate, Duncan homogeneous subsets” value ([1]; Table 25) was 1.3397.

CC[C@H](C)[C@H](N)C(=O)O [L-Ile] was tested, and the “relative substrate activation (highest activity defined as 100%)” value [2] was 23%, the “relative substrate activation (highest activity defined as 100%)” value [3] was 4% and the “relative substrate activation (highest activity defined as 100%)” value [4] was 100%. The “relative substrate activation (highest activity defined as 100%)” value [5] was 19%.

In the case of NCCCC[C@H](N)C(=O)O [L-Lys], the “relative substrate activation (highest activity defined as 100%)” value [3] is reported as 10%, the substrate activation ([6]; 0.5 mM amino acid, 2 μM protein, 20 proteinogenic amino acids and L-Orn tested) is reported as “only amino acid that activated” and the Km ([6]; substrate 0.1 to 10 mM, read-out: apparent Km) is reported as 1120 µM.

For CC(C)C[C@H](N)C(=O)O [L-Leu], the “relative substrate activation (highest activity defined as 100%)” value [2] was 17%, the “relative substrate activation (highest activity defined as 100%)” value [4] was 7% and the “relative substrate activation (highest activity defined as 100%)” value [5] was 98%.

N[C@@H](Cc1ccccc1)C(=O)O [L-Phe] was tested, and the “relative substrate activation (highest activity defined as 100%)” value [5] was 3.5%.
